This note sets out measurements from ChEMBL document CHEMBL1126294, “Benz[f]isoquinoline analogues as high-affinity sigma ligands” (J Med Chem, 1992).

D(2) dopamine receptor, sequence (P61169 whole entry): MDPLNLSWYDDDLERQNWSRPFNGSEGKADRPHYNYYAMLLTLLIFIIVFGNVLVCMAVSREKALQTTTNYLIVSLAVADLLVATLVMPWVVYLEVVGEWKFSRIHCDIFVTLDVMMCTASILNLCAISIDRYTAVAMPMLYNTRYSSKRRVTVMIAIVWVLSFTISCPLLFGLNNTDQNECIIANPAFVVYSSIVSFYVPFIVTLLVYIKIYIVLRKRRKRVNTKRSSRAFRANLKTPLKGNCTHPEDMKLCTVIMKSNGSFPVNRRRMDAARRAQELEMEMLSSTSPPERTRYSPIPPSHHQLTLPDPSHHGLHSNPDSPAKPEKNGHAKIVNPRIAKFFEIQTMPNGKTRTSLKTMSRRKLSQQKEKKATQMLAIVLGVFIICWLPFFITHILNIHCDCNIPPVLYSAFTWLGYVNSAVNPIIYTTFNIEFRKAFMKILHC

The assay concerns the target D(2) dopamine receptor (Rattus norvegicus, UniProt P61169). The assay can be described thus: Inhibition of [3H](-)-sulpiride binding to rat striatum dopamine receptor D2. Type of assay: tissue-based.
The IC50 is the concentration at which inhibition is half-maximal. A low value points to higher potency. For the compound `CC(C)(C)c1ccc(CN2CC[C@H]3c4ccccc4CC[C@H]3C2)cc1`, the IC50 is 288 nM.
`c1ccc(CCN2CC[C@H]3c4ccccc4CC[C@H]3C2)cc1` gave an IC50 of 162 nM.
`c1ccc2c(c1)CC[C@H]1CN(C3CCCCC3)CC[C@@H]21` showed an IC50 of 2690 nM.
`O=[N+]([O-])c1ccc(CCN2CC[C@H]3c4ccccc4CC[C@H]3C2)cc1` showed an IC50 of 589 nM.
As for `CCCCN1CCC2c3ccccc3CCCC2C1` (configuration not stated), the IC50 is 166 nM.
Compound `c1ccc2c(c1)CC[C@H]1CN(C34C[C@H]5C[C@@H](C3)C[C@@H](C4)C5)CC[C@@H]21` gave an IC50 above 10000 nM.
`CCCCN1CCC2=C(Cc3ccccc32)C1`: the IC50 is 60.3 nM.
For the compound `CCCCN1CC[C@@H]2c3ccccc3CC[C@H]2C1`, the IC50 is 389 nM.
For the compound `CCCCN1CCC2=C(CCCc3ccccc32)C1`, the IC50 is 61.7 nM.
In the case of `COc1ccc(CN2CC[C@H]3c4ccccc4CC[C@H]3C2)cc1`, the IC50 is 35.5 nM.
In the case of `CCCCN1CCC2=C(CCc3ccccc32)C1` it was 63.1 nM; in that of `CCCCN1CC[C@H]2c3ccccc3CC[C@H]2C1`, 145 nM.
